Measurements published in patent US20220168427A1 (Ranok Therapeutics (Hangzhou) Co. Ltd., priority 2019, published 2022).

Legend:
BRD4 (BD1+BD2) = target: T1, BRD4 (BD1+BD2) (Homo sapiens, UniProt O60885); conditions: read-out: BRD4 Binding Potency
T1 construct: 1.8 μg/ml recombinant BRD4 (BD1+BD2 domains) protein

HSP90α = HSP90α (Homo sapiens, UniProt P07900); assay: HSP90α Binding Fluorescent Polarization (FP) Assay; conditions: competition with FITC-geldanamycin; read-out: HSP90 Binding Potency
Procedure, shortened: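 Competitive FP assay in which compound displaces FITC-geldanamycin from recombinant HSP90α (28 μg/ml before addition) in BSA-containing buffer. Compounds in 3-fold series from 40 μM to 2.0 nM (dilution-plate concentrations), tested in duplicate. Readings after 30, 60 and 120 min at 25 °C; background-subtracted mP fitted to four-parameter log[inhibitor]-response curve.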

MV4-11 cells = assay: MV4-11 Cell Cytotoxicity Assay; type: cell-based, human; conditions: CCK-8; for IC50 at 72 h: human, MV4-11 cells
Text: % Inhibition=100−(D−B)/(S−B)*100%.
S: The absorbance of the maximum (cells with DMSO)
B: The absorbance of the minimum (medium with DMSO)

Row | Compound | IC50 (BRD4 (BD1+BD2)) [µM] | IC50 (HSP90α) [µM] | IC50 at 72 h (MV4-11 cells) [µM] | IC50 (MV4-11 cells; 72 hr) [µM]
1 | CCc1cc(-c2nnc(O)n2-c2ccc(CNC(=O)C[C@@H]3N=C(c4ccc(Cl)cc4)c4c(sc(C)c4C)-n4c(C)nnc43)cc2)c(O)cc1O [Compound 56, 2-((6S)-4-(4-chlorophenyl)-2,3,9-trimethyl-6H-thieno[3,2-f][1,2,4]triazolo[4,3-a][1,4]diazepin-6-yl)-N-(4-(3-(5-ethyl-2,4-dihydroxyphenyl)-5-hydroxy-4H-1,2,4-triazol-4-yl)benzyl)acetamide] | 0.1 to 1 | 0.1 to 1 | 0.1 to 1 | 
2 | Cc1nn(-c2ccc(C(N)=O)c(NCCOCCC3CCN(C(=O)C[C@@H]4N=C(c5ccc(Cl)cc5)c5c(sc(C)c5C)-n5c(C)nnc54)CC3)c2)c2c1C(=O)CC(C)(C)C2 [Compound 23, 2-((2-(2-(1-(2-((6S)-4-(4-chlorophenyl)-2,3,9-trimethyl-6H-thieno[3,2-f][1,2,4]triazolo[4,3-a][1,4]diazepin-6-yl)acetyl)piperidin-4-yl)ethoxy)ethyl)amino)-4-(3,6,6-trimethyl-4-oxo-4,5,6,7-tetrahydro-1H-indazol-1-yl)benzamide, trifluoroacetic acid] | > 1 | > 1 | 0.1 to 1 | 
3 | CCc1cc(-c2nnc(C(=O)NCC(F)(F)F)n2-c2ccc(CC3CCN(Cc4ccc(CNC(=O)C[C@@H]5N=C(c6ccc(Cl)cc6)c6c(sc(C)c6C)-n6c(C)nnc65)cc4)CC3)cc2)c(O)cc1O [Compound 91, (S)-4-(4-((1-(4-((2-(4-(4-chlorophenyl)-2,3,9-trimethyl-6H-thieno[3,2-f][1,2,4]triazolo[4,3-a][1,4]diazepin-6-yl)acetamido)methyl)benzyl)piperidin-4-yl)methyl)phenyl)-5-(5-ethyl-2,4-dihydroxyphenyl)-N-(2,2,2-trifluoroethyl)-4H-1,2,4-triazole-3-carboxamide, trifluoroacetic acid] | 0.1 to 1 | 0.1 to 1 | < 0.1 | 
4 | Cc1sc2c(c1C)C(c1ccc(Cl)cc1)=N[C@@H](CC(=O)NCC(=O)NCC1CN(C(=O)C3CCN(Cc4ccc(-n5c(O)nnc5-c5cc(C(C)C)c(O)cc5O)cc4)CC3)C1)c1nnc(C)n1-2 [Compound 60, 2-((6S)-4-(4-chlorophenyl)-2,3,9-trimethyl-6H-thieno[3,2-f][1,2,4]triazolo[4,3-a][1,4]diazepin-6-yl)-N-(2-(((1-(1-(4-(3-(2,4-dihydroxy-5-isopropylphenyl)-5-hydroxy-4H-1,2,4-triazol-4-yl)benzyl)piperidine-4-carbonyl)azetidin-3-yl)methyl)amino)-2-oxoethyl)acetamide, trifluoroacetic acid] | 0.1 to 1 | 0.1 to 1 | < 0.1 | 
5 | Cc1sc2c(c1C)C(c1ccc(Cl)cc1)=N[C@@H](CCNCCOCCOc1ccc(-n3c(O)nnc3-c3cc(C(C)C)c(O)cc3O)cc1)c1nnc(C)n1-2 [Compound 63, (S)-4-(4-(4-(2-(2-((2-(4-(4-chlorophenyl)-2,3,9-trimethyl-6H-thieno[3,2-f][1,2,4]triazolo[4,3-a][1,4]diazepin-6-yl)ethyl)amino)ethoxy)ethoxy)phenyl)-5-hydroxy-4H-1,2,4-triazol-3-yl)-6-isopropylbenzene-1,3-diol, trifluoroacetic acid] | 0.1 to 1 | 0.1 to 1 | 0.1 to 1 | 
6 | CCc1cc(-c2nnc(C(=O)NCC(F)(F)F)n2-c2ccc(CN3CCN(CC4CCN(C(=O)C[C@@H]5N=C(c6ccc(Cl)cc6)c6c(sc(C)c6C)-n6c(C)nnc65)CC4)CC3)cc2)c(O)cc1O [Compound 14, 4-(4-((4-((1-(2-((6S)-4-(4-chlorophenyl)-2,3,9-trimethyl-6H-thieno[3,2-f][1,2,4]triazolo[4,3-a][1,4]diazepin-6-yl)acetyl)piperidin-4-yl)methyl)piperazin-1-yl)methyl)phenyl)-5-(5-ethyl-2,4-dihydroxyphenyl)-N-(2,2,2-trifluoroethyl)-4H-1,2,4-triazole-3-carboxamide, trifluoroacetic acid] | > 1 | 0.1 to 1 | < 0.1 | 
7 | Cc1sc2c(c1C)C(c1ccc(Cl)cc1)=N[C@@H](CC(=O)N1CCN(C(=O)C3CCN(c4ccc(-n5c(O)nnc5-c5cc(C(C)C)c(O)cc5O)cc4)CC3)CC1)c1nnc(C)n1-2 [Compound 29, (S)-2-(4-(4-chlorophenyl)-2,3,9-trimethyl-6H-thieno[3,2-f][1,2,4]triazolo[4,3-a][1,4]diazepin-6-yl)-1-(4-(1-(4-(3-(2,4-dihydroxy-5-isopropylphenyl)-5-hydroxy-4H-1,2,4-triazol-4-yl)phenyl)piperidine-4-carbonyl)piperazin-1-yl)ethan-1-one] | > 1 | > 1 | 0.1 to 1 | 
8 | Cc1sc2c(c1C)C(c1ccc(Cl)cc1)=N[C@@H](CC(=O)NCCOc1ccc(-n3c(S)nnc3-c3cc(C(C)C)c(O)cc3O)cc1)c1nnc(C)n1-2 [Compound 32, (S)-2-(4-(4-chlorophenyl)-2,3,9-trimethyl-6H-thieno[3,2-f][1,2,4]triazolo[4,3-a][1,4]diazepin-6-yl)-N-(2-(4-(3-(2,4-dihydroxy-5-isopropylphenyl)-5-mercapto-4H-1,2,4-triazol-4-yl)phenoxy)ethyl)acetamide] | > 1 | 0.1 to 1 | 0.1 to 1 | 
9 | Cc1sc2c(c1C)C(c1ccc(Cl)cc1)=N[C@@H](CC(=O)N1CCC(CN3CCN(Cc4ccc(-n5c(C(=O)NCCN6CCCCC6)nnc5-c5cc(C(C)C)c(O)cc5O)cc4)CC3)CC1)c1nnc(C)n1-2 [Compound 107, (S)-4-(4-((4-((1-(2-(4-(4-chlorophenyl)-2,3,9-trimethyl-6H-thieno[3,2-f][1,2,4]triazolo[4,3-a][1,4]diazepin-6-yl)acetyl)piperidin-4-yl)methyl)piperazin-1-yl)methyl)phenyl)-5-(2,4-dihydroxy-5-isopropylphenyl)-N-(2-(piperidin-1-yl)ethyl)-4H-1,2,4-triazole-3-carboxamide, trifluoroacetic acid] | < 0.1 | 0.1 to 1 | < 0.1 | 
10 | (S)—N-(4′-((1-((S)-(2-(4-(4-chlorophenyl)-2,3,9-trimethyl-6H-thieno[3,2-f][1,2,4]triazolo[4,3-a][1,4]diazepin-6-yl)acetyl)glycyl)piperidin-4-yl)oxy)-2′-(2-(dimethylamino)ethoxy)-[1,1′-biphenyl]-4-yl)-3′,6-dimethoxy-[1,1′-biphenyl]-3-carboxamide [Compound 137] | 0.1 to 1 | > 1 |  | 0.1 to 1
11 | CCn1c(=O)/c(=C2\Sc3ccccc3N2C)s/c1=C\c1cccc[n+]1CCNC(=O)C[C@@H]1N=C(c2ccc(Cl)cc2)c2c(sc(C)c2C)-n2c(C)nnc21 [Compound 8, 1-(2-(2-((6S)-4-(4-chlorophenyl)-2,3,9-trimethyl-6H-thieno[3,2-f][1,2,4]triazolo[4,3-a][1,4]diazepin-6-yl)acetamido)ethyl)-2-((Z)-((E)-3-ethyl-5-(3-methylbenzo[d]thiazol-2(3H)-ylidene)-4-oxothiazolidin-2-ylidene)methyl)pyridin-1-ium] | 0.1 to 1 | > 1 | > 1 | 
